The values below come from patent US20240206469A1, “PHOSPHORUS USE EFFICIENCY ENHANCERS AS PLANT GROWTH PROMOTORS” (EUROCHEM ANTWERPEN, priority 2021, published 2024).

Assay [1] concerns Arabidopsis. The assay is described as follows: Arabidopsis pot experiment (rosette size, soil phosphate, anthocyanin). The assay is classed as in vivo, Arabidopsis thaliana. The protocol: Regular Arabidopsis, soybean and maize pot experiments used an unfertilized potting soil, which was supplemented at the start of the experiment with 50 ml H2O containing 0.25 g/l NH4NO3 and 0.44 g/l (high phosphate) or no (maize and soybean) or 0.11 g/l KH2PO (Arabidopsis) for low phosphate conditions. For the sand-based maize pot experiment, sand was supplemented with 50 ml H2O containing 0.25 g/l NH4NO3 and 0.38 g/l (high phosphate) or 0.02 g/l (low phosphate) KH2PO4. Potassium was balanced via addition of KCl. Compound concentration was 10 μM, calculated based on the total water content after watering, and was added at the start of the experiment (Arabidopsis) or once a week (maize). Indexed chlorophyll contents were received via a SPAD 502 Plus Chlorophyll Meter. All parameters in the sand experiment, except the rate of leaf 4 (measured the first 4 days after emergence), were measured 19 days after sowing. Measurements in the pot experiments with potting soil were done after 4 weeks of growth, except for leaf 5, which was measured at 26 days. One long-term maize pot experiment was conducted with the DKC 2931 (2.5 months) and B104 (3 months) cultivars on the PHENOVISION phenotyping platform as described in Frontiers in Plant Science 2021, 12: 640914, except that an unfertilized potting soil was used and that plants were fertilized with a low-phosphate Hoagland solution. The 2.5× overconcentrated low-phosphate Hoagland solution contained 0.034 g/l KH2PO and 200 mL of this solution was applied twice a week. 1.4 mL of a 10 mM compound solution was added each two weeks to each pot, corresponding to 9.6 mg/g nutrients. 13 plants per condition were used. During the experiment, pictures were taken twice a week for each plants from 6 different angles and the top. […] Extraction and quantification of anthocyanin levels was carried out according to The Plant cell 2013, 25:1641-1656. Anthocyanin levels were quantified by measuring absorption at 530 and 657 nm using a spectrophotometer and normalized to fresh weight input, and expressed relative to the low phosphate control. […]

For assay [2], the system named is Maize. The experiment in a line: Sand-based maize pot experiment. Format: in vivo, maize cultivar B104. Conditions: low phosphate. The protocol: All Arabidopsis plant experiments were performed using the Arabidopsis thaliana Columbia-0 background. The Arabidopsis pSPX1::GUS line is described in the Plant Journal 2008, 54: 965-975. For rice, the cultivar Nipponbare was used. For maize, the cultivars DKC 2931 and B104 were used for regular pot experiments and sand-based pot experiments, respectively. For soybean, the cultivar Primus was used. […] The medium was solidified due to the addition of 0.6% Gelrite, unless stated otherwise. In case of vertical plates (root length and root hair measurements), the medium was supplied with 0.5% of sucrose and 1 μM (low phosphate, 1 μM KH2PO4, 9.9 mM KCl), 10 μM (low phosphate 10 μM KH2PO4, 9.9 mM KCl) or 1.25 mM KH2PO4 (high phosphate). Arabidopsis seeds were stratified for 2 days at 4° C. before germination. Seedlings were germinated in climate-controlled growth chambers at 22° C. under continuous light (100 μmol m^−2 s^−1). Husked rice seeds were germinated on wetted Whatman paper for 2 days at 37° C. and then transferred to Sterivent boxes or square Petri dishes with solid medium. Maize and soybean seeds were wetted 24 hours at room temperature prior to sowing in pots.
Regular Arabidopsis, soybean and maize pot experiments used an unfertilized potting soil, which was supplemented at the start of the experiment with 50 ml H2O containing 0.25 g/l NH4NO3 and 0.44 g/l (high phosphate) or no (maize and soybean) or 0.11 g/l KH2PO (Arabidopsis) for low phosphate conditions. For the sand-based maize pot experiment, sand was supplemented with 50 ml H2O containing 0.25 g/l NH4NO3 and 0.38 g/l (high phosphate) or 0.02 g/l (low phosphate) KH2PO4. Potassium was balanced via addition of KCl. Compound concentration was 10 μM, calculated based on the total water content after watering, and was added at the start of the experiment (Arabidopsis) or once a week (maize). Indexed chlorophyll contents were received via a SPAD 502 Plus Chlorophyll Meter. All parameters in the sand experiment, except the rate of leaf 4 (measured the first 4 days after emergence), were measured 19 days after sowing. Measurements in the pot experiments with potting soil were done after 4 weeks of growth, except for leaf 5, which was measured at 26 days. One long-term maize pot experiment was conducted with the DKC 2931 (2.5 months) and B104 (3 months) cultivars on the PHENOVISION phenotyping platform as described in Frontiers in Plant Science 2021, 12: 640914, except that an unfertilized potting soil was used and that plants were fertilized with a low-phosphate Hoagland solution. The 2.5× overconcentrated low-phosphate Hoagland solution contained 0.034 g/l KH2PO and 200 mL of this solution was applied twice a week. […]

The structures appear in SMILES notation.

As for `CC1CN(CC(=O)c2c(N)n(C)c(=O)n(C)c2=O)c2ccccc2O1` (stereo not shown) [Compound 8, 6-amino-1,3-dimethyl-5-[2-(2-methyl-2,3-dihydro-1,4-benzoxazin-4-yl)acetyl]pyrimidine-2,4-dione], the Relative anthocyanin level in assay [1] (4-week old plant, relative to low phosphate control = 1) stood at 0.6. Further, the “Phosphate level in soil (relative value)” value in assay [1] (after 4 weeks of growth, relative to low phosphate control = 1) was 0.8. In assay [1] (low phosphate, 10 μM, 4 weeks, control 17), this compound registered a Rosette size of 25 cm^2. Further, the Plant height in assay [2] (10 μM once a week, 19 days after sowing, control 21) is given as 28 cm. Further, the Indexed chlorophyll content in assay [2] (19 days after sowing, SPAD, control 28) came out at 32. This compound yielded a Crown root number in assay [2] (19 days after sowing, control 2) of 7. Besides, the “Growth rate of leaf 4” value in assay [2] (first 4 days after emergence, control 2.04) is 2.46 cm/day.
